Values of other authors as cited in patent publication US20240189272A1, “FORMULATIONS AND COMPOSITIONS OF DOCETAXEL” (Zhuhai Beihai Biotech Co., Ltd., priority 2017, published 2024).
“Also recorded” adds a separate entry of the source.

How the values were obtained:
[1] = test system: plasma proteins
[2] = test system: microtubules
[3] = attributed in part to polysorbate 80

in vitro binding to plasma proteins ([1]; in three cancer patients): approximately 97%
protein bound ([1]; in vitro studies, mainly to α1-acid glycoprotein, albumin, and lipoproteins): about 94%
Structure (SMILES): CC(=O)O[C@@]12CO[C@@H]1C[C@H](O)[C@@]1(C)C(=O)[C@H](O)C3=C(C)[C@@H](OC(=O)[C@H](O)[C@@H](NC(=O)OC(C)(C)C)c4ccccc4)C[C@@](O)([C@@H](OC(=O)c4ccccc4)[C@H]21)C3(C)C [docetaxel]
potency in inhibiting microtubule depolymerization relative to paclitaxel [2]: about twice as potent as paclitaxel
water solubility: practically insoluble in water; also recorded: very poor water solubility
side-effects associated with administration [3]: unpredictable (acute) hypersensitivity reactions and cumulative fluid retention
